Source: ChEMBL document CHEMBL1158048, “19-Nor- and 18,20-epoxy-cardenolides from the leaves of Calotropis gigantea” (J Nat Prod, 2006)
Active and inactive are the calls of the source. No cut-off for these calls is given here.

What was measured:
[1] = test system: KB; experiment: Cytotoxicity against human KB cells by SRB assay; assay type: functional, cell-based
[2] = Cytotoxicity against human BC cells by SRB assay; assay type: functional, cell-based
[3] = test system: NCI-H187; experiment: Cytotoxicity against human NCI-H187 cells by SRB assay; assay type: functional, cell-based
[4] = test system: KB; experiment: Cytotoxicity against human KB cells at 20 ug/ml by SRB assay; assay type: functional, cell-based
[5] = test system: BC; experiment: Cytotoxicity against human BC cells at 20 ug/ml by SRB assay; assay type: functional, cell-based
[6] = test system: NCI-H187; experiment: Cytotoxicity against human NCI-H187 cells at 20 ug/ml by SRB assay; assay type: functional, cell-based
[7] = test system: Plasmodium falciparum; experiment: Antimalarial activity after 48 hrs against multidrug-resistant Plasmodium falciparum K1; assay type: functional, organism-based

Row | Compound | IC50 [1] | IC50 [2] | IC50 [3] | Activity [4] | Activity [5] | Activity [6] | Activity [7]
1 | C[C@@H]1C[C@H](O)[C@]2(O)O[C@@H]3C[C@@]4(C=O)[C@@H](CC[C@@H]5[C@@H]4CC[C@]4(C)[C@@H](C6=CC(=O)OC6)C[C@@H](O)[C@]54O)C[C@H]3O[C@@H]2O1 | 0.602 µM | 0.547 µM | 3.33 µM |  |  |  | 
2 | C[C@@H]1C[C@H](O)[C@]2(O)O[C@@H]3C[C@@]4(C=O)[C@@H](CC[C@@H]5[C@@H]4CC[C@]46CO[C@]7(COC(=O)C7)[C@H]4CC[C@]56O)C[C@H]3O[C@@H]2O1 | 1.29 µM | 2.21 µM | 3.64 µM |  |  |  | 
3 | COC(=O)[C@@]1(O)C[C@@H](C)O[C@H]1O[C@@H]1C[C@@H]2CC[C@@H]3[C@H](CC[C@]4(C)[C@@H](C5=CC(=O)OC5)CC[C@]34O)[C@@]2(C(=O)O)C[C@H]1O |  |  |  | inactive | inactive | inactive | 
4 | COC(=O)[C@@]1(O)C[C@@H](C)O[C@H]1O[C@@H]1C[C@@H]2CC[C@@H]3[C@H](CC[C@]4(C)[C@@H](C5=CC(=O)OC5)CC[C@]34O)[C@@]2(C=O)C[C@H]1O [CALACTINICACID METHYL ESTER] | 3.73 µM | 5.65 µM | 14.4 µM |  |  |  | 
5 | C[C@@H]1C[C@@H](O)[C@]2(O)O[C@@H]3C[C@@]4(C=O)[C@@H](CC[C@@H]5[C@@H]4CC[C@]4(C)[C@@H](C6=CC(=O)OC6)CC[C@]54O)C[C@H]3O[C@@H]2O1 [CALACTIN] | 0.0413 µM | 0.0207 µM | 0.345 µM |  |  |  | inactive
6 | C[C@@H]1C[C@H](O)[C@]2(O)O[C@@H]3C[C@@]4(C=O)[C@@H](CC[C@@H]5[C@@H]4CC[C@]4(C)[C@@H](C6=CC(=O)OC6)CC[C@]54O)C[C@H]3O[C@@H]2O1 [CALOTROPIN] | 0.062 µM | 0.0413 µM | 0.471 µM |  |  |  | inactive
7 | C[C@]12CC[C@H](O)C[C@H]1CC[C@@H]1[C@@H]2CC[C@]2(C)[C@@H](C3=CC(=O)OC3)CC[C@]12O [DIGITOXIGENIN] | 9.61 µM | 8.95 µM | 9.77 µM |  |  |  | inactive
8 | COc1cccc2c1C(=O)c1c(O)c3c(c(O)c1C2=O)C[C@@](O)(C(=O)CO)C[C@@H]3O[C@H]1C[C@H](N)[C@H](O)[C@H](C)O1 [DOXORUBICIN] | 0.219 µM | 0.288 µM | 0.0405 µM |  |  |  | 
9 | Cc1c2ccncc2c(C)c2c1[nH]c1ccccc12 [ELLIPTECINE] | 0.812 µM | 0.682 µM | 2.23 µM |  |  |  | 
